From US9827189B2, “Stable parenteral DNJ compositions” (AMICUS THERAPEUTICS, INC., priority 2013, dated 2017)
Entries after “also recorded” stand apart in the source; their conditions may differ. Counter-ions that a name gives are not always drawn.

How the values were obtained:
[1] = Stability and integrity of 1-DNJ-HCl in buffer solutions at 60° C. by NP-HPLC (UV and CAD) and discoloration; format: physicochemical
Procedure: 1-DNJ-HCl was dissolved in sodium phosphate buffer. 1-DNJ-HCl concentration was 60 mg/mL; sodium phosphate buffer concentration was 100 mM at pH 4.89. The formulation was stored at 60° C. for 4 days. 1-DNJ-HCl solution in water was used as a control. Reaction rate for small molecules such as 1-DNJ-HCl generally follows Arrhenius equation where reaction rate nearly doubles for every 10° C. increase in the temperature. Thus, under this model, the reaction rate at 60° C. would be 2^5 or 32 times the reaction rate at 10° C. Therefore during 4 days at 60° C. 1-DNJ-HCl would degrade by approximately the same percentage as during 128 days (4*32) at 10° C. The stability of 1-DNJ-HCl was measured by normal phase high performance liquid chromatography (NP-HPLC). 1-DNJ-HCl was recorded by UV chromatograms and by Charged Aerosol Detector (CAD) chromatograms. Mobile phase consisted of ACN/30 mM Ammonium Acetate (90/10, v/v). The flow rate was 1.0 ml/min with 5 μl injection at 400° C. UV absorbance was measured at 220 nm CAD detector settings were 35.0 psi, Gain: 100 pA. 1-DNJ-HCl was dissolved in sodium acetate buffer. The 1-DNJ-HCl concentration was 60 mg/mL; sodium acetate buffer concentration was 50 mM at pH 5.5. The formulation was stored at 60° C. for 4 days. 1-DNJ-HCl solution in water was used as control. Reaction rate for small molecules such as 1-DNJ-HCl generally follows the Arrhenius equation, in which the reaction rate nearly doubles for every 10°K increase in the temperature. Thus the reaction rate, under this model, at 60° C. would be 2^5 or 32 times the reaction rate at 10° C. Therefore during 4 days at 60° C. 1-DNJ-HCl would degrade by approximately same percentage as during 128 days at 10° C. The stability of 1-DNJ-HCl was measured by NP-HPLC. Presence of 1-DNJ-HCl was recorded by UV absorbance detector and by Charged Aerosol Detector. Mobile phase consisted of ACN/30 mM Ammonium Acetate (90/10, v/v). The flow rate was 1.0 ml/min with 5 μl injection at 400 C. UV absorbance was measured at 220 nm. CAD detector settings were 35.0 psi, Gain: 100 pA. 1-DNJ-HCl was dissolved in sodium citrate buffer that further includes EDTA. 1-DNJ-HCl concentration was 60 mg/mL; sodium citrate buffer concentration was 50 mM at pH 4.6. The EDTA concentration was 0.05% w/v. Some samples were stored under the nitrogen atmosphere (essentially 100% nitrogen) while others were stored under air. The formulation was stored at 60° C. for 8 days. Stability of 1-DNJ-HCl was measured by NP-HPLC. Presence of 1-DNJ-HCl was recorded by UV absorbance detector and by Charged Aerosol Detector. Mobile phase consisted of ACN/30 mM Ammonium Acetate (90/10, v/v). The flow rate was 1.0 ml/min with 5 μl injection at 400 C. UV absorbance was measured at 220 nm. CAD detector settings were 35.0 psi, Gain: 100 pA. 1-DNJ-HCl was dissolved in sodium citrate buffer. 1-DNJ-HCl concentration was 60 mg/mL; sodium citrate buffer concentration was 50 mM at pH 4.7. The formulation was stored at 60° C. for 8 days. 1-DNJ-HCl solution in water was used as control. Stability of 1-DNJ-HCl was measured by NP-HPLC. Presence of 1-DNJ-HCl was recorded by UV absorbance detector and by Charged Aerosol Detector. Mobile phase consisted of ACN/30 mM Ammonium Acetate (90/10, v/v). The flow rate was 1.0 ml/min with 5 μl injection at 400 C. UV absorbance was measured at 220 nm. CAD detector settings were 35.0 psi, Gain: 100 pA. 1-DNJ-HCl was dissolved in sodium citrate buffer. 1-DNJ-HCl concentration was 60 mg/mL; sodium citrate buffer concentration was 50 mM at pH 5.0. The formulation was stored at 60° C. for 17 days. The samples were stored under the nitrogen atmosphere (essentially 100% nitrogen). 1-DNJ-HCl solution in water was used as control. Reaction rate for small molecules such as 1-DNJ-HCl generally follows Arrhenius equation where reaction rate nearly doubles for every 10°K increase in the temperature. Thus reaction rate at 60° C. would be 2^5 or 32 times the reaction rate at 10° C. Therefore during 17 days at 60° C. […]

human whole blood = assay: Hemolytic potential in human whole blood; format: cell-based; conditions: 37 ° C. 30 minutes
Procedure: (§1) 1-DNJ-HCl was dissolved in sodium citrate buffer. 1-DNJ-HCl concentration was 30 mg/mL (resulting free 1-DNJ concentration was 25 mg/mL); sodium citrate buffer concentration was 50 mM at pH 5.0. 1-DNJ-HCl formulation was added to whole blood samples of male human, rat, and cynomolgus monkey. […]. Buffer served as a negative control, while Triton-X 100 (Lysing agent) served as a positive control. Additionally blood sample without any additions was used as a negative control. The samples were stored at 4° C. Blood samples were incubated at 37 ° C. for 30 minutes with the 1-DNJ-HCl formulation, after which the samples were centrifuged. The amount of hemoglobin in the supernatant from each centrifuged sample was measured using a commercially available hemoglobin assay kit (BioAssay Systems, QuantiChrom™ Hemoglobin Assay Kit) and the Tecan microplate reader.

[2] = test system: cynomolgus monkey whole blood; assay: Hemolytic potential in cynomolgus monkey whole blood; format: cell-based; conditions: 37 ° C. 30 minutes
Procedure: as §1

[3] = 60 mg/mL in 50 mM sodium acetate buffer pH 5.5, 60° C., 4 days, hydrochloride
[4] = 60 mg/mL in 50 mM sodium citrate buffer pH 4.6, EDTA 0.05% w/v, nitrogen atmosphere, 60° C., 8 days
[5] = 60 mg/mL in 50 mM sodium citrate buffer pH 4.6, EDTA 0.05% w/v, stored under air, 60° C., 8 days
[6] = 60 mg/mL in 100 mM sodium phosphate buffer pH 4.89, 60° C., 4 days
[7] = 60 mg/mL in 100 mM sodium phosphate buffer pH 4.89, 60° C., 4 days, hydrochloride
[8] = control 1-DNJ-HCl aqueous solution, 60° C., 4 days
[9] = control 1-DNJ-HCl aqueous solution, 60° C., 8 days
[10] = control 1-DNJ-HCl aqueous solution, 60° C., 17 days
[11] = sodium citrate buffer, summary of the Examples
[12] = 500 μL blood mixed with 500 μL sample (30 mg/mL AT2220 or 0.1% Triton X-100)
[13] = 500 μL blood mixed with 500 μL sample, 30 mg/mL AT2220 dilution 1, 0.1% Triton X-100 dilution 100

Presence of 1-DNJ-HCl (NP-HPLC) ([1]; 60 mg/mL in 50 mM sodium acetate buffer pH 5.5, 60° C., 4 days): still present
Presence of 1-DNJ-HCl (NP-HPLC) ([1]; 60 mg/mL in 50 mM sodium citrate buffer pH 4.6, EDTA 0.05% w/v, 60° C., 8 days): still present
New compounds (UV and CAD chromatograms) [1, 4]: No new compounds were detected
Discoloration [1, 5]: slight discoloration
New compounds (UV and CAD chromatograms) [1, 5]: showed presence of new compounds
Presence of 1-DNJ-HCl (NP-HPLC) ([1]; 60 mg/mL in 50 mM sodium citrate buffer pH 4.7, 60° C., 8 days): still present
Presence of 1-DNJ-HCl (NP-HPLC) ([1]; 60 mg/mL in 50 mM sodium citrate buffer pH 5.0, nitrogen atmosphere, 60° C., 17 days): still present
Presence of 1-DNJ-HCl (NP-HPLC) [1, 6]: still present
Stability [1, 6]: not stable
Appearance of solution [1, 8]: remainded clear
New compounds (UV and CAD chromatograms) [1, 8]: No new compounds were detected
Discoloration [1, 9]: No discoloration was observed
New compounds (UV and CAD chromatograms) [1, 9]: No new compounds were detected
Discoloration [1, 10]: No discoloration was observed
New compounds (UV and CAD chromatograms) [1, 10]: No new compounds were detected
Relative stability among buffers ([1]; sodium citrate buffer compared with sodium phosphate and sodium acetate buffers): most stable
Discoloration [1, 11]: little to no discoloration
Compound: OC[C@H]1NC[C@H](O)[C@@H](O)[C@@H]1O [1-DNJ-HCl, 1-deoxynojirimycin hydrochloride]
Discoloration [1, 3]: discoloration of the acetate buffer solution was observed; also recorded: resulted in discoloration
New compounds (UV and CAD chromatograms) [1, 3]: detected presence of new compounds; also recorded: presence of additional compounds
Discoloration [1, 4]: remained clear with no visible discoloration
Discoloration [1, 7]: discoloration of the phosphate buffer solution was observed; also recorded: resulted in discoloration
New compounds (UV and CAD chromatograms) [1, 7]: detected presence of new compounds; also recorded: presence of additional compounds
Additional compounds (HPLC) [1, 11]: little to no presence of additional compounds
% RBC lysis (human whole blood; [12]): 0.0%
Avg OD (n = 4) (human whole blood; [13]): 0.0755
% RBC lysis [2, 12]: 0.1%
Avg OD (n = 4) [2, 13]: 0.0649
